# Target: T1, Alpha-fucosidase-like protein (Bacteroides thetaiotaomicron (strain ATCC 29148 / DSM 2079 / JCM 5827 / CCUG 10774 / NCTC 10582 / VPI-5482 / E50), UniProt Q8ABG8)
# T1 sequence (Q8ABG8 whole entry): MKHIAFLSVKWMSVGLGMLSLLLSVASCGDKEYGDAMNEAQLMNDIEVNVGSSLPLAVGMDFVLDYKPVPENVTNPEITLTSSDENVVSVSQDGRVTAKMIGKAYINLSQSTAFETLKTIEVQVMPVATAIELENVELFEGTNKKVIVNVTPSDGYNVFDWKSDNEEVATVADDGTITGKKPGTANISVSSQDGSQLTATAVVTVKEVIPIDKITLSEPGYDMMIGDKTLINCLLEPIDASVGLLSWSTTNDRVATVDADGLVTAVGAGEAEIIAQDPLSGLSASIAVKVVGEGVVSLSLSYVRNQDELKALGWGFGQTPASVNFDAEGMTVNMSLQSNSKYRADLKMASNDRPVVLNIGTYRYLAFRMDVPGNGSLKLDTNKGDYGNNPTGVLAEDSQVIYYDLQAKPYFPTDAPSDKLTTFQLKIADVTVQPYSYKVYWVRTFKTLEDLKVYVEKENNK
# Experiment: Enzyme Assay
# Settings: 37 °C
# Experimental: The kinetic studies involving a spectrophotometric product were conducted by monitoring the change in UV/visible absorbance with a Cintra 10 spectrophotometer.
Kd (pH 6) [µM],Kd (pH 6.5) [µM],Kd (pH 8.5) [µM],Compound
0.0148,0.027,0.372,C[C@@H]1NC[C@@H](O)[C@H](O)[C@@H]1O
0.0466,–,0.157,"CC1NC(CNC(=O)c2cccc3c2C(=O)c2ccccc2-3)C(O)C(O)C1O (stereo not given) [Fucosidase Inhibitor, 4]"

# — BindingDB's records for doi:10.1002/cbic.201000339 (University of York, 2010)
